These results are taken from patent US6811993B2, “Diagnostic and screening methods based on monocyte PKC activity” (Joslin Diabetes Center, Inc., priority 2000, dated 2004).

The test system of this test is PKC. The test is described as follows: PKC activity in mononuclear cells of STZ-induced diabetic rats after treatment. Type of test: in vivo, rat. The note with it: male Sprague-Dawley rats, STZ-induced diabetes (56% increase vs control), insulin pellet inserted subcutaneously, after 2 weeks. The protocol: Monocytes of rats and also human control subjects and patients with diabetes were isolated from blood with anticoagulant of sodium citrate. The blood sample was put onto the same volume of Histopaque-1077 (Sigma) and centrifuged at 400×g for 30 minutes at room temperature. The layer containing mononuclear cells was transferred to a new tube and washed with phosphate-buffered saline (PBS). After centrifugation at 400×g for 10 minutes, cell pellet was suspended with a solution of 144 mM NH4Cl and 17 mM Tris-HCl, pH 7.65 to lyse the contaminated red blood cells. Mononuclear cells were washed with PBS and used in this study.
Mononuclear cells of human and rats and retina of rats were suspended in a buffer containing 137 mM NaCl, 4.3 mM KCl, […] Na2HPO4, 0.4 mM KH2PO4, 5.5 mM D-Glucose, 10 mM MgCl2, 1 mM CaCl2, 25 mM β-glycerophosphate, and 20 mM HEPES, pH 7.2. […] The paper was put into a scientillation vial and radioactivity of ^32p was assayed by scientillation counter. The paper was put into a scintillation vial and radioactivity of ^32p incorporated into substrate peptide per minute per mg of protein, and calculated by the difference between the activity in the presence of substrate peptide and the activity in the absence of the peptide.
Male Sprague-Dawley rats at the age of 6 weeks were used in this study. […] PKC activity in these tissues was measured as described below.

On to insulin, for which the “PKC activity in rat mononuclear cells” value was “restored to the level of control rats”.
